Structures are written as SMILES.

Assay [1] concerns the target T1, BaF3-Tel-IGF1-R (Homo sapiens, UniProt P08069).
T1 construct: the kinase domain of IGF-1R (aa 976-1367) linked by a Ser-Arg-linker; expressed in transfected cells; host or cells: BaF3 murine proB-cell lymphoma cells, stably transduced
Nature of the assay: BaF3 cell viability assay (resazurin/AlamarBlue), 96-well format. It is filed as cell-based. The following applies: 96-well plate format; 48 h incubation; resazurin dye reduction; cell proliferation/viability. The source says: BaF3-Tel-IGF1-R and BaF3-InsR are BaF3 murine proB-cell lymphoma cell derivatives [the BaF3 cell line (also termed Ba/F3) is available from the German Collection of Microorganisms and Cell Cultures (DSMZ), Braunschweig, Germany] that have been rendered IL-3-independent by stable transduction with kinase-activating fusions between human TEL (aa 1-452) and the kinase domain of IGF-1R (aa 976-1367) linked by a Ser-Arg-linker (Boulay et al, Cancer Res 68, 3743-3751, 2008), and a fusion between human TEL (aa 1-337) and the kinase domain (aa 1015-1382) of the Insulin receptor (Melnick J S et al, Proc Natl Acad Sci USA 103, 3153-3158, 2006), respectively. Cells are cultured in RPMI-1640 (Animed #1-14F01-1) supplemented with 2% L-glutamine (Animed #5-10K50-H) and 10% fetal calf serum (FCS, Animed #2-01F16-I). Wild-type, untransfected BaF3 cells are maintained in above medium plus 10 U/ml IL-3 (mouse Interleukin-3, Roche #1380745 or Invitrogen # PMC0035) and are used to identify non-selective, generally growth-inhibitory compounds. Cells (1.5×10^4 cells per well) are seeded in 190 μl fresh medium into 96-well plates. […] In addition, a plate blank value is routinely determined in a well containing only 100 μl of medium and no cells. […] Following incubation of the cells for 48 h at 37° C. and 5% CO2, the effect of inhibitors on cell viability is assessed by the resazurin sodium salt dye reduction assay (commercially known as AlamarBlue assay) basically as previously described (O'Brien J. et al., Eur. J. Biochem. 267: 5421-5426, 2000). […] Thereafter, fluorescence is measured using a Saphirell 96-well plate reader (TECAN, Männedorf, Switzerland) with the following settings: Excitation 544 nm and Emission 590 nm. […] The effect of a particular test compound concentration on cell proliferation and viability is expressed as percentage of the blank-corrected reading obtained for cells treated with vehicle only, which is set as 100%. IC50 values can be determined using XLfit (V4.2), applying standard four parameter logistic model #205 (IDBS, Guilford, UK) or other common curve-fitting software.
In general terms: Alamar Blue is a resazurin reagent that responds to reducing activity.

For assay [2], the target named is T1, BaF3-Tel-IGF1-R. Nature of the assay: BaF3 cell viability assay (resazurin), 384-well format. It is filed as cell-based. The following applies: 384-well plate format; 48 h incubation; resazurin dye reduction; cell proliferation/viability. The source says:
BaF3-Tel-IGF1-R and BaF3-InsR are BaF3 murine proB-cell lymphoma cell derivatives [the BaF3 cell line (also termed Ba/F3) is available from the German Collection of Microorganisms and Cell Cultures (DSMZ), Braunschweig, Germany] that have been rendered IL-3-independent by stable transduction with kinase-activating fusions between human TEL (aa 1-452) and the kinase domain of IGF-1R (aa 976-1367) linked by a Ser-Arg-linker (Boulay et al, Cancer Res 68, 3743-3751, 2008), and a fusion between human TEL (aa 1-337) and the kinase domain (aa 1015-1382) of the Insulin receptor (Melnick J S et al, Proc Natl Acad Sci USA 103, 3153-3158, 2006), respectively. Cells are cultured in RPMI-1640 (Animed #1-14F01-1) supplemented with 2% L-glutamine (Animed #5-10K50-H) and 10% fetal calf serum (FCS, Animed #2-01F16-I). Wild-type, untransfected BaF3 cells are maintained in above medium plus 10 U/ml IL-3 (mouse Interleukin-3, Roche #1380745 or Invitrogen # PMC0035) and are used to identify non-selective, generally growth-inhibitory compounds. Cells (1.5×10^4 cells per well) are seeded in 190 μl fresh medium into 96-well plates. 10 μl 20× compound solutions are added. As internal control, the kinase inhibitor PKC412 is routinely used. Control cells treated with DMSO (0.1% final concentration) serve as growth reference (set as 100% growth). In addition, a plate blank value is routinely determined in a well containing only […] of medium and no cells. IC50 determinations are performed based on eight 3-fold serial dilutions of the test compound, starting at 10 μM. Following incubation of the cells for 48 h at 37° C. and 5% CO2, the effect of inhibitors on cell viability is assessed by the resazurin sodium salt dye reduction assay (commercially known as AlamarBlue assay) basically as previously described (O'Brien J. et al., Eur. J. Biochem. 267: 5421-5426, 2000). Briefly, 20 μl dye solution is added per well and the plates incubated for 6 h at 37° C. and 5% CO2. Thereafter, fluorescence is measured using a Saphirell 96-well plate reader (TECAN, Männedorf, Switzerland) with the following settings: Excitation 544 nm and Emission 590 nm. For data analysis, the plate blank value is subtracted from all data points. The effect of a particular test compound concentration on cell proliferation and viability is expressed as percentage of the blank-corrected reading obtained for cells treated with vehicle only, which is set as 100%. IC50 values can be determined using XLfit (V4.2), applying standard four parameter logistic model #205 (IDBS, Guilford, UK) or other common curve-fitting software.
To achieve a higher throughput, the cell viability assay can also be performed in a 384-well format. Briefly, 4′500 freshly diluted cells are seeded in 54 μl/well into 384-well plates using a liquid dispenser. 6 μl 10× compound solution is added to the cell plate. As internal control, the kinase inhibitor PKC412 is routinely used. Control cells treated with DMSO (0.1% final concentration) serve as growth reference (set as 100% growth). In addition, a plate blank value is routinely determined in a well containing only 60 μl of medium and no cells. Dose-response effects are determined by 3-fold serial compound dilutions, starting at 10 μM. Following incubation of the cells for 48 h at 37° C. and 5% CO2, the effect of compounds on cell proliferation/viability is assessed by addition of 6 μl resazurin sodium salt dye solution per well. Following incubation for an additional 6 hrs at 37° C. and 5% CO2, fluorescence is measured using an Infiniti M1000 microplate reader (TECAN, Männedorf, Switzerland) with excitation and emission wavelengths set at 544 and 590 nm, respectively. For data analysis, the plate blank value is subtracted from all data points. IC50 values can be determined by four parameter logistic fitting as described above.

T1 sequence (P08069 976-1367): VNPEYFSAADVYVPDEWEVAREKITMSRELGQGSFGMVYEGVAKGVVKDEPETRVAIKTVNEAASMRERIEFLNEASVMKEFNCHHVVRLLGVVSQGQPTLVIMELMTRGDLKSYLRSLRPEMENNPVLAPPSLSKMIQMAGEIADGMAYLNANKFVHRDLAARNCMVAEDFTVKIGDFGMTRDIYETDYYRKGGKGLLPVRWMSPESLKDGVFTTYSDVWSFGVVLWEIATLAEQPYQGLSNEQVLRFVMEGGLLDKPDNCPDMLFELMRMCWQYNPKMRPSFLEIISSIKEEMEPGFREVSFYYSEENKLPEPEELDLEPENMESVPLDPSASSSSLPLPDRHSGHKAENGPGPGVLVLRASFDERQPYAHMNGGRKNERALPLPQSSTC

Broadly, the IC50 is the concentration needed to halve the response being measured. Read a low IC50 as higher potency. Consider `Cc1cccc(N2CCC(n3c(=N)n(Cc4ccccc4Cl)c4ccccc43)CC2)c1` [Example 54, 1-(2-Chloro-benzyl)-3-(1-m-tolyl-piperidin-4-yl)-1,3-dihydro-benzoimidazol-2-ylideneamine], for which the midpoint of inhibition against BaF3-Tel-IGF1-R [1], the IC50, lay at 405 nM.

`Cc1cccc(N2CCC(n3c(=N)n(Cc4cc(F)ccc4Cl)c4ccccc43)CC2)c1` [Example 55, 1-(2-Chloro-5-fluoro-benzyl)-3-(1-m-tolyl-piperidin-4-yl)-1,3-dihydro-benzoimidazol-2-ylideneamine]: the IC50 against BaF3-Tel-IGF1-R [1] was found to be 288 nM.

Molecule `COc1ccc(NC(C)=O)c(N2CCC(n3c(=N)n(Cc4cccc5[nH]ccc45)c4ccc(F)cc43)CC2)c1` [Example 56.13, N-(2-{4-[6-Fluoro-2-imino-3-(1H-indol-4-ylmethyl)-2,3-dihydro-benzoimidazol-1-yl]-piperidin-1-yl}-4-methoxy-phenyl)-acetamide] showed a 50% inhibitory concentration (IC50) against BaF3-Tel-IGF1-R [2] of 9 nM.

The molecule `CC(=O)Nc1ccc(C(F)(F)F)cc1N1CCC(n2c(=N)n(Cc3cccc4[nH]nnc34)c3ccc(F)cc32)CC1` [Example 56.14, N-(2-{4-[3-(1H-Benzotriazol-4-ylmethyl)-6-fluoro-2-imino-2,3-dihydro-benzoimidazol-1-yl]-piperidin-1-yl}-4-trifluoromethyl-phenyl)-acetamide] returned an IC50 on BaF3-Tel-IGF1-R [2] of 23 nM.

On to `CC(=O)Nc1ccc(C)cc1N1CCC(n2c(=N)n(Cc3cccc4[nH]ccc34)c3ccc(F)cc32)CC1` [Example 56.15, N-(2-{4-[6-Fluoro-2-imino-3-(1H-indol-4-ylmethyl)-2,3-dihydro-benzoimidazol-1-yl]-piperidin-1-yl}-4-methyl-phenyl)-acetamide], for which the IC50 against BaF3-Tel-IGF1-R [2] was 41 nM.

On to `CC(=O)Nc1ccc(C(F)(F)F)cc1N1CCC(n2c(=N)n(Cc3cccc4[nH]ccc34)c3ccc(F)cc32)CC1` [Example 56.16, N-(2-{4-[6-Fluoro-2-imino-3-(1H-indol-4-ylmethyl)-2,3-dihydro-benzoimidazol-1-yl]-piperidin-1-yl}-4-trifluoromethyl-phenyl)-acetamide], for which the IC50 against BaF3-Tel-IGF1-R [2] came to 39 nM.

At BaF3-Tel-IGF1-R [2], `CC(=O)Nc1ccc(C(F)(F)F)cc1N1CCC(n2c(=N)n(Cc3ccccc3Cl)c3ccc(F)cc32)CC1` [Example 56.17, N-(2-{4-[3-(2-Chloro-benzyl)-6-fluoro-2-imino-2,3-dihydro-benzoimidazol-1-yl]-piperidin-1-yl}-4-trifluoromethyl-phenyl)-acetamide] gave an IC50 of 38 nM.

On BaF3-Tel-IGF1-R [2], `CC(=O)Nc1ccccc1N1CCC(n2c(=N)n(Cc3ccccc3Cl)c3ccc(F)cc32)CC1` [Example 56.18, N-(2-{4-[3-(2-Chloro-benzyl)-6-fluoro-2-imino-2,3-dihydro-benzoimidazol-1-yl]-piperidin-1-yl}-phenyl)-acetamide] had a concentration for half-maximal inhibition (IC50) of 119 nM.

On BaF3-Tel-IGF1-R [2], `CC(=O)Nc1ccccc1N1CCC(n2c(=N)n(Cc3cccc4[nH]ccc34)c3ccc(F)cc32)CC1` [Example 56.19, N-(2-{4-[6-Fluoro-2-imino-3-(1H-indol-4-ylmethyl)-2,3-dihydro-benzoimidazol-1-yl]-piperidin-1-yl}-phenyl)-acetamide] gave a concentration for half-maximal inhibition (IC50) of 382 nM.

At BaF3-Tel-IGF1-R [2], `CC(=O)Nc1ccc(Cl)cc1N1CCC(n2c(=N)n(Cc3cccc4[nH]ccc34)c3ccccc32)CC1` [Example 57] gave a 50% inhibitory concentration (IC50) of 15 nM.

Consider `CC(=O)Nc1ccc(Cl)cc1N1CCC(n2c(=N)n(Cc3ccccc3Cl)c3ccccc32)CC1` [Example 58, N-(4-Chloro-2-{4-[3-(2-chloro-benzyl)-2-imino-2,3-dihydro-benzoimidazol-1-yl]-piperidin-1-yl}-phenyl)-acetamide], for which it took 37 nM to reach half-maximal inhibition against BaF3-Tel-IGF1-R [2] (IC50). Compared with the last molecule, the IC50 is about 2.5-fold higher.

`CC(=O)/N=c1\n(Cc2ccccc2Cl)c2ccccc2n1C1CCN(c2cc(Cl)ccc2NC(C)=O)CC1` [Example 59, N-(2-{4-[2-Acetylimino-3-(2-chloro-benzyl)-2,3-dihydro-benzoimidazol-1-yl]-piperidin-1-yl}-4-chloro-phenyl)-acetamide] came in with an IC50 against BaF3-Tel-IGF1-R [2] of 407 nM.

Take `CC(=O)Nc1ccc(Cl)cc1N1CCC(n2c(=N)n(Cc3cccc4[nH]nnc34)c3ccccc32)CC1` [Example 60, N-(2-{4-[3-(1H-Benzotriazol-4-ylmethyl)-2-imino-2,3-dihydro-benzoimidazol-1-yl]-piperidin-1-yl}-4-chloro-phenyl)-acetamide]: the 50% inhibitory concentration (IC50) on BaF3-Tel-IGF1-R [2] is 64 nM.

`CC(=O)Nc1ccc(Cl)cc1N1CCC(n2c(=N)n(Cc3cccc4[nH]ccc34)c3ccc(F)cc32)CC1` [Example 61, N-(4-Chloro-2-{4-[6-fluoro-2-imino-3-(1H-indol-4-ylmethyl)-2,3-dihydro-benzoimidazol-1-yl]-piperidin-1-yl}-phenyl)-acetamide]: the IC50 on BaF3-Tel-IGF1-R [2] stood at 8 nM.

In turn, `CC(=O)Nc1ccc(Cl)cc1N1CCC(n2c(=N)n(Cc3ccccc3Cl)c3ccc(F)cc32)CC1` [Example 62, N-(4-Chloro-2-{4-[3-(2-chloro-benzyl)-6-fluoro-2-imino-2,3-dihydro-benzoimidazol-1-yl]-piperidin-1-yl}-phenyl)-acetamide] had a concentration for half-maximal inhibition (IC50) at BaF3-Tel-IGF1-R [2] of 36 nM.

With `CC(=O)Nc1ccc(Cl)cc1N1CCC(n2c(=N)n(Cc3cccc4[nH]nnc34)c3ccc(F)cc32)CC1` [Example 63, N-(2-{4-[3-(1H-Benzotriazol-4-ylmethyl)-6-fluoro-2-imino-2,3-dihydro-benzoimidazol-1-yl]-piperidin-1-yl}-4-chloro-phenyl)-acetamide], it took 22 nM to reach half-maximal inhibition at BaF3-Tel-IGF1-R [2] (IC50).

`CC(=O)Nc1ccc(Cl)cc1N1CCC(n2c(=N)n(Cc3cccc4[nH]cnc34)c3ccc(F)cc32)CC1` [Example 64, N-(2-{4-[3-(1H-Benzoimidazol-4-ylmethyl)-6-fluoro-2-imino-2,3-dihydro-benzoimidazol-1-yl]-piperidin-1-yl}-4-chloro-phenyl)-acetamide]: inhibition against BaF3-Tel-IGF1-R [2] was half-maximal at 163 nM (IC50).

In turn, `CC(=O)Nc1ccc(C)nc1N1CCC(n2c(=N)n(Cc3cccc4[nH]ccc34)c3ccc(F)cc32)CC1` [Example 65, N-{4-[6-Fluoro-2-imino-3-(1H-indol-4-ylmethyl)-2,3-dihydro-benzoimidazol-1-yl]-6′-methyl-3,4,5,6-tetrahydro-2H-[1,2′]bipyridinyl-3′-yl}-acetamide] displayed a 50% inhibitory concentration (IC50) on BaF3-Tel-IGF1-R [2] of 5 nM. This IC50 lies about 33-fold lower than the previous one.

With `CC(=O)/N=c1\n(Cc2cccc3[nH]ccc23)c2ccccc2n1C1CCN(c2cc(C)ccc2NC(C)=O)CC1` [Example 66, N-(2-{4-[2-Acetylimino-3-(1H-indol-4-ylmethyl)-2,3-dihydro-benzoimidazol-1-yl]-piperidin-1-yl}-4-methyl-phenyl)-acetamide], the half-inhibitory concentration (IC50) against BaF3-Tel-IGF1-R [2] was 180 nM.

`CC(=O)Nc1ccc(Cl)nc1N1CCC(n2c(=N)n(Cc3ccccc3Cl)c3ccc(F)cc32)CC1` [Example 77, N-{6′-Chloro-4-[3-(2-chloro-benzyl)-6-fluoro-2-imino-2,3-dihydro-benzoimidazol-1-yl]-3,4,5,6-tetrahydro-2H-[1,2′]bipyridinyl-3′-yl}-acetamide] came in with a concentration for half-maximal inhibition (IC50) on BaF3-Tel-IGF1-R [2] of 68 nM.

Regarding `CC(=O)Nc1ccc(C)nc1N1CCC(n2c(=N)n(Cc3ccccc3Cl)c3ccc(F)cc32)CC1` [Example 78, N-{4-[3-(2-Chloro-benzyl)-6-fluoro-2-imino-2,3-dihydro-benzoimidazol-1-yl]-6′-methyl-3,4,5,6-tetrahydro-2H-[1,2′]bipyridinyl-3′-yl}-acetamide], the midpoint of inhibition on BaF3-Tel-IGF1-R [2], the IC50, lay at 62 nM. This IC50 and that of the molecule before are within 1.5-fold of each other.

These data come from patent US20130085161A1, “PIPERIDINYL SUBSTITUTED 1,3-DIHYDRO-BENZOIMIDAZOL-2-YLIDENEAMINE DERIVATIVES” (NOVARTIS AG, priority 2010, published 2013).
